Measurements reported in US20230286973A1, “PROTEIN SECRETION INHIBITORS” (KEZAR LIFE SCIENCES, priority 2020, published 2023).
Values joined by “and” are separate entries in the source; they are usually repeats but may differ in a detail not shown here. Equal entries are not always repeated.

Tests used:
[1] = test system: PD1-ss+10aa/Gaussia Luciferase; experiment: Dox-Induced PD1-ss-Gluc Assay; assay type: cell-based; conditions: 24 hr Dox induction; 293FRT/TO cells; read-out: 24 hr Dox Inducible PD1ssGluc 293FRT/TO: Mean IC50
Summary of the method: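 Gaussia luciferase fused downstream of the PD1 signal peptide plus 10 residues was expressed on doxycycline induction in stably transfected Flp-In 293 T-REx cells. Compounds were added with doxycycline and incubated at 37 °C, 5% CO2.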

[2] = test system: TNFα-FL/Gaussia Luciferase; experiment: Dox Induced TNFα-FL-Gluc Assay; assay type: cell-based; conditions: for IC50: 24 hr Dox induction, 293FRT/TO cells, read-out: 24 hr Dox Inducible TNFaFLGluc 293FRT/TO: Mean IC50; for 24 hr Dox Inducible TNFaFLGluc 293FRT/TO: TNF/PD1: ratio of TNFaFLGluc IC50 to PD1ssGluc IC50
Summary of the method: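 Flp-In 293 T-REx cells stably expressing full-length TNFα (aa 1-233) fused at its C-terminus to Gaussia luciferase under tetracycline-regulated control were plated the day before assay. Compound dilutions in DMSO/media containing doxycycline were added and incubated at 37 °C, 5% CO2. Unspecified stereochemistry denotes stereoisomer mixtures.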

[3] = test system: HER3-ss+4aa/Gaussia Luciferase; experiment: Dox-Induced Her3-ss-Gluc Assay; assay type: cell-based; conditions: 24 hr Dox induction; 293FRT/TO cells; read-out: 24 hr Dox Inducible Her3(ss + 4)Gluc 293FRT/TO: Mean IC50
Summary of the method: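 Stable Flp-In 293 T-REx line expressing Gaussia luciferase fused to the HER3 signal sequence plus 4 amino acids under tetracycline-regulated (T-REx) control. Cells plated the day before, then treated with compound dilutions in DMSO/media containing doxycycline and incubated at 37° C., 5% CO2.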

[4] = test system: IL-2-FL/Gaussia Luciferase; experiment: Dox Induced IL2-FL-Gluc Assay; assay type: cell-based; conditions: for IC50: 24 hr Dox induction, 293FRT/TO cells, read-out: 24 hr Dox Inducible IL2FLGluc 293FRT/TO: Mean IC50; for 24 hr Dox Inducible IL2FLGluc 293FRT/TO: IL2/PD1: ratio of IL2FLGluc IC50 to PD1ssGluc IC50
Summary of the method: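 Flp-In 293 T-REx cells stably carrying doxycycline-inducible full-length IL-2 (aa 1-153) fused at its C-terminus to Gaussia luciferase, selected with hygromycin and blasticidin. Cells were plated the day before, then treated with compounds in DMSO/media containing doxycycline at 37° C, 5% CO2.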

[5] = test system: multiple myeloma cell line NCI-H929; experiment: H929 Cell Viability Assay; assay type: cell-based, human; conditions: NCI-H929 cells, Celltiter-Glo
Summary of the method: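 NCI-H929 cells, resuspended in RPMI 1640 with 10% FBS and 2 mM glutamine, were treated with compound dilutions in DMSO/media and incubated 48 hours at 37° C, 5% CO2. Viability was read by CellTiter-Glo luminescence. Compounds drawn without stereochemistry were tested as stereoisomer mixtures.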

[6] = test system: multiple myeloma cell line U266B1; experiment: U266 Cell Viability Assay; assay type: cell-based, human; conditions: U266B1 cells, Celltiter-Glo
Summary of the method: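 Cells grown in RPMI 1640 with 10% FBS, 2 mM glutamine and penicillin/streptomycin were exposed to compound dilutions in DMSO/media for 48 hours at 37° C., 5% CO2. Viability was read by CellTiter-Glo luminescence. Undefined stereocentres mean data for stereoisomer mixtures.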

[7] = Liver Microsome Stability Assay (rat); conditions: rat liver microsomes, with NADPH, 1.0 uM compound
Experimental: (§1) Stability of a compound was assessed in the presence of liver microsomes from various sources—mouse, rat, monkey and human liver microsomes. 1.0 uM compound, 0.4% DMSO in 0.1 M Potassium Phosphate with 1.0 mg/mL liver microsomes, were incubated at 37° C. with or without 1 mM NADPH. The samples were quenched at 0, and 30 minutes.

[8] = Liver Microsome Stability Assay (mouse); conditions: mouse liver microsomes, with NADPH, 1.0 uM compound
Experimental: as §1

[9] = Liver Microsome Stability Assay (human); conditions: human liver microsomes, with NADPH, 1.0 uM compound
Experimental: as §1

[10] = Liver Microsome Stability Assay (monkey); conditions: monkey liver microsomes, with NADPH, 1.0 uM compound
Experimental: as §1

Row | Structure (SMILES) | IC50 [1] | IC50 [2] | 24 hr Dox Inducible TNFaFLGluc 293FRT/TO: TNF/PD1 [2] | IC50 [3] | IC50 [4] | 24 hr Dox Inducible IL2FLGluc 293FRT/TO: IL2/PD1 [4] | EC50 ([5]; Homo sapiens, NCI-H929, 48 h) [nM] | EC50 ([6]; Homo sapiens, U-266, 48 h) [nM] | Liver Microsome Stability (Multiple Species): Rat - % Remaining after 30 min w/NADPH [7] | Liver Microsome Stability (Multiple Species): Mouse - % Remaining after 30 min w/NADPH [8] | Liver Microsome Stability (Multiple Species): Human - % Remaining after 30 min w/NADPH [9] | Liver Microsome Stability (Multiple Species): Monkey - % Remaining after 30 min w/NADPH [10] | EC50 ([5]; 48 hr) | EC50 ([6]; 48 hr) [nM]
1 | CC(=O)N1CCC(c2ccc(N3CCC[C@@H]3c3csc(NC(=O)c4cccn4Cc4ccncc4)n3)cc2)CC1 [Compound A55, (R)-N-(4-(1-(4-(1-acetylpiperidin-4-yl)phenyl)pyrrolidin-2-yl)thiazol-2-yl)-1-(pyridin-4-ylmethyl)-1H-pyrrole-2-carboxamide] | 19.5 nM | 426 nM | 21.8 | 41.4 nM | 58.1 nM | 3 | 682 | > 25000 | 0.11% | 18.3% | 0.34% | 0.1% | – | –
2 | O=C(Nc1nc([C@H]2CCCN2c2ccc(C(F)(F)F)cc2)cs1)c1cccn1Cc1ccnc(F)c1 [Compound A56, (R)-1-((2-fluoropyridin-4-yl)methyl)-N-(4-(1-(4-(trifluoromethyl)phenyl)pyrrolidin-2-yl)thiazol-2-yl)-1H-pyrrole-2-carboxamide] | 5.8 nM and 4.66 nM and 4.85 nM | 111 nM and 63.2 nM and 96.9 nM | 19.1 and 13.6 and 20 | 9.54 nM and 8.51 nM and 7.39 nM | 10.4 nM and 6.77 nM and 8.74 nM | 1.8 and 1.5 | 152 | > 25000 | 48.3% and 54.8% | 81.1% and 81.8% | 43.9% and 46% | 27.3% and 25.8% | 149 nM and 165 nM | > 24800
3 | O=C(Nc1nc([C@H]2CCCN2c2ccc(CO)cc2)cs1)c1cccn1Cc1ccncc1 [Compound A57, (R)-N-(4-(1-(4-(hydroxymethyl)phenyl)pyrrolidin-2-yl)thiazol-2-yl)-1-(pyridin-4-ylmethyl)-1H-pyrrole-2-carboxamide] | 17.7 nM | 287 nM | 16.2 | 38.3 nM | 45.1 nM | 2.5 | 500 | > 25000 | 6.28% | 6.1% | 26.6% | 49.5% | – | –
4 | CC(=O)N1CCCCC1c1ccc(N2CCC[C@@H]2c2csc(NC(=O)c3cccn3Cc3ccncc3)n2)cc1 (stereo partly drawn) [Compound A58, N-(4-((2R)-1-(4-(1-acetylpiperidin-2-yl)phenyl)pyrrolidin-2-yl)thiazol-2-yl)-1-(pyridin-4-ylmethyl)-1H-pyrrole-2-carboxamide] | 108 nM | 1880 nM | 17.4 | 249 nM | 296 nM | 2.7 | 3340 | 9990 | 4.13% | 0.24% | 0.4% | 0.29% | – | –
5 | O=C(Nc1nc([C@H]2CCCN2c2ccc(C3CCCCN3)cc2)cs1)c1cccn1Cc1ccncc1 (stereo partly drawn) [Compound A59, N-(4-((2R)-1-(4-(piperidin-2-yl)phenyl)pyrrolidin-2-yl)thiazol-2-yl)-1-(pyridin-4-ylmethyl)-1H-pyrrole-2-carboxamide] | 2180 nM | 22500 nM | 10.3 | 5060 nM | 6960 nM | 3.2 | 16000 | 6490 | 21.3% | 49.8% | 0.62% | 2.29% | – | –
6 | O=C(Nc1nc([C@H]2CCCN2c2ccccc2)cs1)c1cccn1Cc1cc(F)nc(F)c1 [Compound A60, (R)-1-((2,6-difluoropyridin-4-yl)methyl)-N-(4-(1-phenylpyrrolidin-2-yl)thiazol-2-yl)-1H-pyrrole-2-carboxamide] | 63.8 nM | 861 nM | 13.5 | 131 nM | 186 nM | 2.9 | 4720 | > 25000 | 19.7% | 48.3% | 13.7% | 23.8% | – | –
7 | O=C(Nc1nc([C@H]2CCCN2c2ccc(C3CCCNC3)cc2)cs1)c1cccn1Cc1ccncc1 (stereo partly drawn) [Compound A61, N-(4-((2R)-1-(4-(piperidin-3-yl)phenyl)pyrrolidin-2-yl)thiazol-2-yl)-1-(pyridin-4-ylmethyl)-1H-pyrrole-2-carboxamide] | 917 nM | 11600 nM | 12.7 | 1570 nM | 3220 nM | 3.5 | 6290 | 5520 | 22.8% | 54.5% | 2.45% | 5.11% | – | –
